Test results published in ChEMBL document CHEMBL1124865, “Synthesis and biological evaluation of a series of parenteral 3'-quaternary ammonium cephalosporins” (J Med Chem, 1990).
≈ marks a conversion by molar mass, not a printed value.

Key:
Assay type in all cases: functional
[1] = tested on: Enterobacter cloacae; assay: Antibacterial activity against Enterobacter cloacae 265A; settings: Enterobacter cloacae; read-out: MIC
[2] = tested on: Escherichia coli; assay: Antibacterial activity against Escherichia coli EC14; settings: Escherichia coli; read-out: MIC
[3] = tested on: Enterobacter cloacae; assay: Antibacterial activity against Enterobacter cloacae EB5; settings: Enterobacter cloacae; read-out: MIC
[4] = tested on: Escherichia coli; assay: Antibacterial activity against Escherichia coli TEM; settings: Escherichia coli; read-out: MIC
[5] = tested on: Klebsiella pneumoniae; assay: microbe, parasite or virus in culture; settings: Klebsiella pneumoniae; read-out: MIC
Description: Antibacterial activity against Klebsiella pneumoniae 1082E

[6] = tested on: Klebsiella pneumoniae; assay: Antibacterial activity against Klebsiella pneumoniae X26; settings: Klebsiella pneumoniae; read-out: MIC
[7] = tested on: Pseudomonas aeruginosa; assay: Antibacterial activity against Pseudomonas aeruginosa X528; settings: Pseudomonas aeruginosa; read-out: MIC
[8] = tested on: Pseudomonas aeruginosa; assay: Antibacterial activity against Pseudomonas aeruginosa PS18; settings: Pseudomonas aeruginosa; read-out: MIC
[9] = tested on: Staphylococcus aureus; assay: Antibacterial activity against penicillin G resistance Staphylococcus aureus; settings: Staphylococcus aureus; read-out: MIC
[10] = tested on: Staphylococcus aureus; assay: Antibacterial activity against penicillin G susceptible Staphylococcus aureus; settings: Staphylococcus aureus; read-out: MIC
[11] = tested on: Streptococcus pneumoniae; assay: Antibacterial activity against Streptococcus pneumoniae; settings: Streptococcus pneumoniae; read-out: MIC
[12] = tested on: Serratia marcescens; assay: Antibacterial activity against Serratia marcescens SE3; settings: Serratia marcescens; read-out: MIC
[13] = tested on: Streptococcus pyogenes; assay: Antibacterial activity against Streptococcus pyogenes
[14] = tested on: Enterococcus faecium; assay: Antibacterial activity against Enterococcus faecium; settings: Enterococcus faecium; read-out: MIC
[15] = Streptococcus pyogenes, read-out: MIC

Row | Compound | MIC [1] | MIC [2] | MIC [3] | MIC [4] | MIC [5] | MIC [6] | MIC [7] | MIC [8] | MIC [9] | MIC [10] | MIC [11] | MIC [12] | MIC [13] | MIC [14] | MIC [13, 15]
1 | CO/N=C(\C(=O)N[C@@H]1C(=O)N2C(C(=O)[O-])=C(C[n+]3ccc4c(S(=O)(=O)O)cccc4c3)CS[C@H]12)c1csc(N)n1 | 64 µg/mL (≈ 106 µM) | 0.015 µg/mL (≈ 0.0248 µM) | 0.25 µg/mL (≈ 0.413 µM) | 0.03 µg/mL (≈ 0.0496 µM) | 32 µg/mL (≈ 52.9 µM) | 0.03 µg/mL (≈ 0.0496 µM) | 32 µg/mL (≈ 52.9 µM) | 16 µg/mL (≈ 26.5 µM) | 8 µg/mL (≈ 13.2 µM) | 4 µg/mL (≈ 6.62 µM) | 0.015 µg/mL (≈ 0.0248 µM) | 0.25 µg/mL (≈ 0.413 µM) | 0.015 µg/mL (≈ 0.0248 µM) | > 128 µg/mL | 
2 | CO/N=C(\C(=O)N[C@@H]1C(=O)N2C(C(=O)[O-])=C(C[n+]3ccc(Cl)cc3)CS[C@H]12)c1csc(N)n1 | 32 µg/mL (≈ 62.9 µM) | 0.06 µg/mL (≈ 0.118 µM) | 0.25 µg/mL (≈ 0.491 µM) | 0.03 µg/mL (≈ 0.0589 µM) | 16 µg/mL (≈ 31.4 µM) | 0.03 µg/mL (≈ 0.0589 µM) | 4 µg/mL (≈ 7.86 µM) | 16 µg/mL (≈ 31.4 µM) | 4 µg/mL (≈ 7.86 µM) | 2 µg/mL (≈ 3.93 µM) | 0.03 µg/mL (≈ 0.0589 µM) | 0.25 µg/mL (≈ 0.491 µM) |  | > 128 µg/mL | 0.015 µg/mL (≈ 0.0295 µM)
3 | CO/N=C(\C(=O)N[C@@H]1C(=O)N2C(C(=O)[O-])=C(C[n+]3cccc4ccoc43)CS[C@H]12)c1csc(N)n1 | 8 µg/mL (≈ 15.5 µM) | < 0.008 µg/mL | 0.125 µg/mL (≈ 0.243 µM) | 0.06 µg/mL (≈ 0.117 µM) | 4 µg/mL (≈ 7.77 µM) | < 0.008 µg/mL | 4 µg/mL (≈ 7.77 µM) | 16 µg/mL (≈ 31.1 µM) | 16 µg/mL (≈ 31.1 µM) | 2 µg/mL (≈ 3.89 µM) | < 0.008 µg/mL | 0.125 µg/mL (≈ 0.243 µM) |  | > 128 µg/mL | < 0.008 µg/mL
4 | CO/N=C(\C(=O)N[C@@H]1C(=O)N2C(C(=O)[O-])=C(C[n+]3csc(CCOC(C)=O)c3C)CS[C@H]12)c1csc(N)n1 | 2 µg/mL (≈ 3.44 µM) | 0.03 µg/mL (≈ 0.0517 µM) | 0.125 µg/mL (≈ 0.215 µM) | 0.03 µg/mL (≈ 0.0517 µM) | 8 µg/mL (≈ 13.8 µM) | 0.015 µg/mL (≈ 0.0258 µM) | 32 µg/mL (≈ 55.1 µM) | 64 µg/mL (≈ 110 µM) | 4 µg/mL (≈ 6.89 µM) | 2 µg/mL (≈ 3.44 µM) | 0.015 µg/mL (≈ 0.0258 µM) | 0.125 µg/mL (≈ 0.215 µM) |  | 32 µg/mL (≈ 55.1 µM) | 0.015 µg/mL (≈ 0.0258 µM)
